Measurements: ChEMBL document CHEMBL1121609, “Peptide sweeteners. 4. Hydroxy and methoxy substitution of the aromatic ring in L-aspartyl-L-phenylalanine methyl ester. Structure-taste relationships” (J Med Chem, 1980)
Non-standard residues stand in square brackets, D forms with d. Residues, ends and D or L forms follow the SMILES beside them. ξ: configuration not given here. Tyr(3-OMe) = COc1cc(C[C@H](N)C(=O)O)ccc1O; Phe(3-OMe) = COc1cccc(C[C@H](N)C(=O)O)c1; Dopa = N[C@@H](Cc1ccc(O)c(O)c1)C(=O)O; ξPhe(3-OMe) = COc1cccc(CC(N)C(=O)O)c1; mTyr = N[C@@H](Cc1cccc(O)c1)C(=O)O; ξmTyr = NC(Cc1cccc(O)c1)C(=O)O; ξY = NC(Cc1ccc(O)cc1)C(=O)O; ξD = NC(CC(=O)O)C(=O)O

Test: Determined to achieve reproducible taste; + indicates ~ 1-5 times as sweet as sucrose

| Taste | Structure (SMILES) |
| --- | --- |
| ~ 1-5 times as sweet as sucrose | COC(=O)[C@H](Cc1ccc(OC)cc1)NC(=O)[C@@H](N)CC(=O)O (H-Asp-Tyr(Me)-OMe) |

Test: Determined to achieve reproducible taste; ++ indicates ~10-40 times as sweet as sucrose

| Structure (SMILES) | Taste |
| --- | --- |
| COC(=O)C(Cc1cccc(OC)c1)NC(=O)[C@@H](N)CC(=O)O (stereo partly specified) (H-Asp-[ξPhe(3-OMe)]-OMe) | ~10-40 times as sweet as sucrose |
| COC(=O)C(Cc1ccccc1O)NC(=O)[C@@H](N)CC(=O)O (stereo partly specified) | ~10-40 times as sweet as sucrose |
| COC(=O)[C@H](Cc1ccccc1O)NC(=O)[C@@H](N)CC(=O)O | ~10-40 times as sweet as sucrose |
| COC(=O)[C@H](Cc1cccc(OC)c1)NC(=O)[C@@H](N)CC(=O)O (H-Asp-[Phe(3-OMe)]-OMe) | ~10-40 times as sweet as sucrose |

Results, then the molecule that gave them:

| Taste | Structure (SMILES) |
| --- | --- |
| ~10-40 times as sweet as sucrose | COC(=O)C(Cc1cccc(O)c1)NC(=O)[C@@H](N)CC(=O)O (stereo partly specified) (H-Asp-[ξmTyr]-OMe) |
| ~10-40 times as sweet as sucrose | COC(=O)C(Cc1ccc(O)cc1)NC(=O)[C@@H](N)CC(=O)O (stereo partly specified) (H-Asp-[ξY]-OMe) |
| ~10-40 times as sweet as sucrose | COC(=O)[C@H](Cc1cccc(O)c1)NC(=O)[C@@H](N)CC(=O)O (H-Asp-[mTyr]-OMe) |
| ~10-40 times as sweet as sucrose | COC(=O)[C@H](Cc1ccc(O)cc1)NC(=O)[C@@H](N)CC(=O)O (H-Asp-Tyr-OMe) |

Test: Determined to achieve reproducible taste; + indicates ~1-5 times as sweet as sucrose

| Taste | Structure (SMILES) |
| --- | --- |
| ~1-5 times as sweet as sucrose | COC(=O)[C@H](Cc1ccc(O)c(O)c1)NC(=O)[C@@H](N)CC(=O)O (H-Asp-[Dopa]-OMe) |
| ~1-5 times as sweet as sucrose | COC(=O)[C@H](Cc1ccc(O)c(OC)c1)NC(=O)C(N)CC(=O)O (stereo partly specified) (H-[ξD]-[Tyr(3-OMe)]-OMe) |
